Assays:
Test in all cases: Histone peptide microarray
Assay type in all cases: binding, human
AIRE (PP) = conditions: GST-tagged AIRE (PP); histone peptide array; arrays performed twice, n of 4
Method in brief: (§1)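 Using an optimized microarray protocol, purified GST-tagged PHD fingers were incubated at 0.5 μM on 293 histone peptides with single or multiple modifications, and array signal was recorded as the average of 4 replicates.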

BAZ2B = conditions: GST-tagged BAZ2B; histone peptide array; arrays performed twice, n of 4
Method in brief: as §1

BPTF (PB) = conditions: GST-tagged BPTF (PB = PHD + Bromodomain); histone peptide array; arrays performed twice, n of 4
Method in brief: as §1

CHD4 (PPCC) = conditions: GST-tagged CHD4 (PPCC = Dual PHD + Dual Chromodomain); histone peptide array; arrays performed twice, n of 4
Method in brief: as §1

CHD5 (PCC) = conditions: GST-tagged CHD5 (PCC = PHD + Dual Chromodomain); histone peptide array; arrays performed twice, n of 4
Method in brief: as §1

CHD5 (PPCC) = conditions: GST-tagged CHD5 (PPCC = Dual PHD + Dual Chromodomain); histone peptide array; arrays performed twice, n of 4
Method in brief: as §1

DIDO1 = conditions: GST-tagged DIDO1; histone peptide array; arrays performed twice, n of 4
Method in brief: as §1

DPF2 (PPC2W2) = conditions: GST-tagged DPF2 (PPC2W2 = Dual PHD + C2W2-type Zn-finger); histone peptide array; arrays performed twice, n of 4
Method in brief: as §1

ING1 = conditions: GST-tagged ING1; histone peptide array; arrays performed twice, n of 4
Method in brief: as §1

ING2 = conditions: GST-tagged ING2; histone peptide array; arrays performed twice, n of 4
Method in brief: as §1

ING3 = conditions: GST-tagged ING3; histone peptide array; arrays performed twice, n of 4
Method in brief: as §1

ING4 = conditions: GST-tagged ING4; histone peptide array; arrays performed twice, n of 4
Method in brief: as §1

ING5 = conditions: GST-tagged ING5; histone peptide array; arrays performed twice, n of 4
Method in brief: as §1

KDM4C (TTP) = conditions: GST-tagged KDM4C (TTP = Tandem Tudor domain + PHD); histone peptide array; arrays performed twice, n of 4
Method in brief: as §1

KDM5A (1) = conditions: GST-tagged KDM5A (1); histone peptide array; arrays performed twice, n of 4
Method in brief: as §1

KDM5A (3) = conditions: GST-tagged KDM5A (3); histone peptide array; arrays performed twice, n of 4
Method in brief: as §1

KDM5B (1) = conditions: GST-tagged KDM5B (1); histone peptide array; arrays performed twice, n of 4
Method in brief: as §1

KDM5B (3) = conditions: GST-tagged KDM5B (3); histone peptide array; arrays performed twice, n of 4
Method in brief: as §1

KDM7A = conditions: GST-tagged KDM7A; histone peptide array; arrays performed twice, n of 4
Method in brief: as §1

MLL5 = conditions: GST-tagged MLL5; histone peptide array; arrays performed twice, n of 4
Method in brief: as §1

MORC3 (CW) = conditions: GST-tagged MORC3 (CW = CW-type Zn-finger); histone peptide array; arrays performed twice, n of 4
Method in brief: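 Each reader, produced as a GST fusion and purified, was tested at 0.5 μM on synthetic histone peptides (293 in total) carrying single or combinatorial marks. Intensities averaged over four replicates.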

PHF13 = conditions: GST-tagged PHF13; histone peptide array; arrays performed twice, n of 4
Method in brief: as §1

PHF21A = conditions: GST-tagged PHF21A; histone peptide array; arrays performed twice, n of 4
Method in brief: as §1

PHF23 = conditions: GST-tagged PHF23; histone peptide array; arrays performed twice, n of 4
Method in brief: as §1

PHF2 = conditions: GST-tagged PHF2; histone peptide array; arrays performed twice, n of 4
Method in brief: as §1

PHF8 = conditions: GST-tagged PHF8; histone peptide array; arrays performed twice, n of 4
Method in brief: as §1

PHRF1 (RP) = conditions: GST-tagged PHRF1 (RP); histone peptide array; arrays performed twice, n of 4
Method in brief: as §1

RAG2 = conditions: GST-tagged RAG2; histone peptide array; arrays performed twice, n of 4
Method in brief: as §1

SP140L = conditions: GST-tagged SP140L; histone peptide array; arrays performed twice, n of 4
Method in brief: as §1

TAF3 = conditions: GST-tagged TAF3; histone peptide array; arrays performed twice, n of 4
Method in brief: as §1

TRIM66 (PB) = conditions: GST-tagged TRIM66 (PB = PHD + Bromodomain); histone peptide array; arrays performed twice, n of 4
Method in brief: as §1

| Substance | Array Heatmap signal, AIRE (PP) (AIRE (PP)) | Array Heatmap signal, BAZ2B (BAZ2B) | Array Heatmap signal, BPTF (PB) (BPTF (PB)) | Array Heatmap signal, CHD4 (PPCC) (CHD4 (PPCC)) | Array Heatmap signal, CHD5 (PCC) (CHD5 (PCC)) | Array Heatmap signal, CHD5 (PPCC) (CHD5 (PPCC)) | Array Heatmap signal, DIDO1 (DIDO1) | Array Heatmap signal, DPF2 (PPC2W2) (DPF2 (PPC2W2)) | Array Heatmap signal, ING1 (ING1) | Array Heatmap signal, ING2 (ING2) | Array Heatmap signal, ING3 (ING3) | Array Heatmap signal, ING4 (ING4) | Array Heatmap signal, ING5 (ING5) | Array Heatmap signal, KDM4C (TTP) (KDM4C (TTP)) | Array Heatmap signal, KDM5A (1) (KDM5A (1)) | Array Heatmap signal, KDM5A (3) (KDM5A (3)) | Array Heatmap signal, KDM5B (1) (KDM5B (1)) | Array Heatmap signal, KDM5B (3) (KDM5B (3)) | Array Heatmap signal, KDM7A (KDM7A) | Array Heatmap signal, MLL5 (MLL5) | also measured |
| --- | --- | --- | --- | --- | --- | --- | --- | --- | --- | --- | --- | --- | --- | --- | --- | --- | --- | --- | --- | --- | --- |
| H3Cit2 + K4me2: H3 1-20 | 0.3883 | 0.45 | 0.3387 | 0.5675 | 0.7759 | 0.5328 | 0.7273 | 0.6839 | 0.5902 | 0.6329 | 0.4571 | 0.4531 | 0.3412 | 0.4533 | 0.4439 | 0.6902 | 0.6545 | 0.6867 | 0.3325 | 0.5743 | Array Heatmap signal, MORC3 (CW) (MORC3 (CW)): 0.7482; Array Heatmap signal, PHF13 (PHF13): 0.6272; Array Heatmap signal, PHF21A (PHF21A): 0.4507; Array Heatmap signal, PHF23 (PHF23): 0.5864; Array Heatmap signal, PHF2 (PHF2): 0.7165; Array Heatmap signal, PHF8 (PHF8): 0.4758; Array Heatmap signal, PHRF1 (RP) (PHRF1 (RP)): 0.4884; Array Heatmap signal, RAG2 (RAG2): 0.6011; Array Heatmap signal, SP140L (SP140L): 0.366; Array Heatmap signal, TAF3 (TAF3): 0.4779; Array Heatmap signal, TRIM66 (PB) (TRIM66 (PB)): 0.6817 |
| H3Cit2 + K4me3 + K9ac + K14ac + K18ac: H3 1-20 | 0.3964 | 0.483 | 0.3451 | 0.6008 | 0.7154 | 0.5144 | 0.8494 | 0.6832 | 0.5664 | 0.6235 | 0.4771 | 0.4376 | 0.327 | 0.4327 | 0.4209 | 0.5236 | 0.5319 | 0.4827 | 0.3427 | 0.6331 | Array Heatmap signal, MORC3 (CW) (MORC3 (CW)): 0.4875; Array Heatmap signal, PHF13 (PHF13): 0.5903; Array Heatmap signal, PHF21A (PHF21A): 0.4881; Array Heatmap signal, PHF23 (PHF23): 0.5313; Array Heatmap signal, PHF2 (PHF2): 0.7451; Array Heatmap signal, PHF8 (PHF8): 0.4072; Array Heatmap signal, PHRF1 (RP) (PHRF1 (RP)): 0.4303; Array Heatmap signal, RAG2 (RAG2): 0.3489; Array Heatmap signal, SP140L (SP140L): 0.3551; Array Heatmap signal, TAF3 (TAF3): 0.287; Array Heatmap signal, TRIM66 (PB) (TRIM66 (PB)): 0.557 |
